Laboratory results taken from patent publication US9861099B2, “Composition for enhancing plant disease control effect of monosaccharide” (MITSUI CHEMICALS AGRO, INC., priority 2013, dated 2018).

Columns and labels:
Type in all cases: in vivo
Phytophthora infestans = conditions: for preventive value LB: Table 9: monosaccharide 10% liquid preparation, no assistant, 10-fold dilution (monosaccharide 1%)
Botrytis cinerea = experiment: Tomato gray mold (GM) control test; conditions: for preventive value GM: Table 9: monosaccharide 10% liquid preparation, no assistant, 10-fold dilution (monosaccharide 1%)
Protocol: (GM: Gray Mold) Test plants (tomato variety: Oogata Fukuju) were planted followed by cultivating until three first leaves appeared. In the test, dilutions (5 ml/pot) obtained by diluting with distilled water so that each formula reached a prescribed concentration were sprayed. After inoculating the seedlings one day after spraying by spraying with 1×10^7 organisms/ml of conidia of Botrytis cinerea, the seedlings were allowed to stand for about 48 hours in an inoculation room at a room temperature of 20° C. to 23° C. to promote the onset of disease. Disease development was investigated 2 days after inoculation, and the effects thereof were evaluated. Disease development was evaluated using the following indicators for disease control tests evaluated according to the methods described above. Furthermore, preventive values were calculated based on the disease development.

[1] = test system: Rhizoctonia solani AGI-IA; experiment: Rice sheath blight (SB) control test; conditions: Table 9: monosaccharide 10% liquid preparation, no assistant, 10-fold dilution (monosaccharide 1%)
Protocol: (SB: Sheath Blight) Test plants (rice variety: Sachikaze) were planted followed by cultivating until the third leaf appeared. In the test, dilutions (5 ml/pot) obtained by diluting with distilled water so that each formula reached a prescribed concentration were sprayed. After inoculating the seedlings one day after spraying with clumps of Rhizoctonia solani AGI-IA cultured for 14 days in oat medium, the seedlings were allowed to stand for about 24 hours in an inoculation room at a room temperature of 28° C. to promote the onset of disease. Disease development was investigated 14 days after inoculation, and the effects thereof were evaluated. Disease development was evaluated using the following indicators for disease control tests evaluated according to the methods described above. Furthermore, preventive values were calculated based on the disease development.

Plasmopara viticola = experiment: Grape vine downy mildew (VDM) control test; conditions: for preventive value VDM: Table 9: monosaccharide 10% liquid preparation, no assistant, 10-fold dilution (monosaccharide 1%); for control effect against grape vine downy mildew: Test Example 10, D-tagatose only
Sphaerotheca cucurbitae = experiment: Cucumber powdery mildew (CPM) control test; conditions: for preventive value CPM: Table 9: monosaccharide 10% liquid preparation, no assistant, 10-fold dilution (monosaccharide 1%); for control effect against cucumber powdery mildew: Test Example 10, D-tagatose only
Venturia inaequalis = experiment: Apple scab (AS) control test; conditions: for preventive value AS: Table 9: monosaccharide 10% liquid preparation, no assistant, 10-fold dilution (monosaccharide 1%)
Protocol: (AS: Apple Scab) Test plants (apple variety: Ohrin) were planted followed by cultivating until four first leaves appeared. In the test, dilutions (5 ml/pot) obtained by diluting with distilled water so that each formula reached a prescribed concentration were sprayed. After inoculating the seedlings one day after spraying by spraying with 1×10^5 organisms/ml of conidia of Venturia inaequalis, the seedlings were allowed to stand for about 24 hours in an inoculation room at a room temperature of 18° C. to 20° C. to promote the onset of disease. Disease development was investigated 10 days after inoculation, and the effects thereof were evaluated. Disease development was evaluated using the following indicators for disease control tests evaluated according to the methods described above. Furthermore, preventive values were calculated based on the disease development.

Magnaporthe grisea = conditions: for preventive value B: Table 9: monosaccharide 10% liquid preparation, no assistant, 10-fold dilution (monosaccharide 1%)
Ralstonia solanacearum = conditions: Table 9: monosaccharide 10% liquid preparation, no assistant, 10-fold dilution (monosaccharide 1%)
[2] = test system: Pseudoperonospora cubensis; experiment: Cucumber downy mildew (CDM) control test; conditions: for Evaluation Score CDM: Table 8: D-tagatose liquid preparation with assistant (5 parts), 10-fold dilution (D-tagatose 0.5%+assistant 0.5%), improvement vs D-tagatose only; for control effect against cucumber downy mildew: Test Example 10, D-tagatose only
[3] = test system: Blumeria graminis f sp. hordei; experiment: Barley powdery mildew (BPM) control test; conditions: Test Example 10, D-tagatose only
Protocol: (BPM: Barley Powdery Mildew) Test plants (barley variety: Sekishinryoku) were planted followed by cultivating until the second leaf appeared. In the test, dilutions (5 ml/pot) obtained by diluting with distilled water so that each formula reached a prescribed concentration were sprayed. After inoculating the seedlings one day after spraying by shaking off conidia of Blumeria graminis f sp. hordei onto the seedlings, disease development was investigated 7 days after, and the effects thereof were evaluated. Disease development was evaluated using the following indicators for disease control tests evaluated according to the methods described above. Furthermore, preventive values were calculated based on the disease development.

Pythium aphanidermatum = experiment: Pythium red blight of bentgrass, soil irrigation treatment; conditions: Comparative Example, main agent only (D-tagatose 80 parts), no assistant; 100-fold dilution, soil irrigation 3 L/m^2; five days after inoculation
Protocol: The effects of the D-tagatose water-soluble powders containing anionic surfactant prepared in Example 11 on grass red blight were evaluated. Test plants (grass variety: Bentgrass) were planted, and three weeks later, cut to a height of 1 cm prior to use in the test. In the test, after inoculating the seedlings with Pythium aphanidermatum preliminarily cultured in wheat bran medium, dilutions obtained by diluting each formula 100-fold with well water were used to treat soil by irrigating at 3 L/m^2 (treatment concentrations: D-tagatose 0.8%+assistant 0.2%). After investigating the onset of disease five days after inoculation, control values were calculated from the diseased area. Effects were evaluated using the same evaluation method as Test Example 10.

Phakopsora ampelopsidis = experiment: Grape vine rust (VR) control test; conditions: Test Example 10, D-tagatose only, treatment concentration 5%
Protocol: (VR: Vine Rust) Test plants (grape variety: Neomuscat) were planted followed by cultivating until three to four first leaves appeared. In the test, dilutions (5 ml/pot) obtained by diluting with distilled water so that each formula reached a prescribed concentration were sprayed. After inoculating the seedlings one day after spraying by spraying with 1×10^7 organisms/ml of uredospores of Phakopsora ampelopsidis, the seedlings were allowed to stand for about 24 hours in an inoculation room at a room temperature of 20° C. to 23° C. to promote the onset of disease. Disease development was investigated 12 days after inoculation, and the effects thereof were evaluated. Disease development was evaluated using the following indicators for disease control tests evaluated according to the methods described above. Furthermore, preventive values were calculated based on the disease development.

Septoria tritici = experiment: Wheat septoria leaf blotch (SLB) control test; conditions: Test Example 10, D-tagatose only, treatment concentration 5%
Protocol: (SLB: Septoria Leaf Blotch) Test plants (wheat variety: Norin 61) were planted followed by cultivating until the second leaf appeared. In the test, dilutions (5 ml/pot) obtained by diluting with distilled water so that each formula reached a prescribed concentration were sprayed. After inoculating the seedlings one day after spraying by spraying with 1×10^7 organisms/ml of conidia of Septoria tritici, the seedlings were allowed to stand for about 24 hours in an inoculation room at a room temperature of 18° C. to promote the onset of disease. Disease development was investigated 14 days after inoculation, and the effects thereof were evaluated. Disease development was evaluated using the following indicators for disease control tests evaluated according to the methods described above. Furthermore, preventive values were calculated based on the disease development.

Phakopsora pachyrhizi = experiment: Soybean rust (SR) control test; conditions: Test Example 10, D-tagatose only, treatment concentration 5%
[4] = test system: Colletotrichum orbiculare; experiment: Cucumber anthracnose (CA) control test; conditions: Test Example 10, D-tagatose only, treatment concentration 5%
Protocol: (CA: Cucumber Anthracnose) Test plants (cucumber variety: Sagami Hanjiro) were planted followed by cultivating until the first leaf appeared. In the test, dilutions (5 ml/pot) obtained by diluting with distilled water so that each formula reached a prescribed concentration were sprayed. After inoculating the seedlings one day after spraying by spraying with 1×10^7 organisms/ml of conidia of Colletotrichum orbiculare, the seedlings were allowed to stand for about 24 hours in an inoculation room at a room temperature of 20° C. to 23° C. to promote the onset of disease. Disease development was investigated 10 days after inoculation, and the effects thereof were evaluated. Disease development was evaluated using the following indicators for disease control tests evaluated according to the methods described above. Furthermore, preventive values were calculated based on the disease development.

Puccinia recondita = experiment: Wheat brown rust (WR) control test
Pythium ultimum = experiment: Cabbage damping-off, soil irrigation treatment; conditions: formula containing D-tagatose only, 80-fold dilution (D-tagatose 1%)
Protocol: The effects of the D-tagatose water-soluble powders containing anionic surfactant prepared in Example 11 on […] were evaluated. Test soil was inoculated by contacting with Pythium ultimum preliminarily cultured in wheat bran medium followed by planting the test plants (cabbage variety: Shikidori) therein. The soil was treated by irrigating at 3 L/m^2 with the formulations which had been 80-fold diluted with well water (treatment concentrations: D-tagatose 1%+assistant 0.25%). […] Effects were evaluated using the same evaluation method as Test Example 1. The protective value with respect to cabbage damping-off of a formula containing D-tagatose only was 29.9.

[5] = Test Example 10, D-tagatose only, treatment concentration 5%
[6] = Test Example 12, D-tagatose 5 parts + Assistant 1 5 parts, 10-fold dilution (D-tagatose 0.5% + Assistant 1 0.5%)
[7] = formula containing D-tagatose only, treatment concentration 0.8%

Molecule: OC[C@H]1OC(O)[C@H](O)[C@H](O)[C@@H]1O (stereo partly drawn) [D-allose]
- preventive value LB (Phytophthora infestans): (60)
- preventive value GM (Botrytis cinerea): (33)
- preventive value SB [1]: (60)
- preventive value VDM (Plasmopara viticola): (40)
- preventive value CPM (Sphaerotheca cucurbitae): (17)
- preventive value AS (Venturia inaequalis): (66)
- preventive value B (Magnaporthe grisea): (40)

Molecule: O=C[C@H](O)[C@@H](O)[C@@H](O)[C@H](O)CO [D-galactose]
- preventive value TBW (Ralstonia solanacearum): (25)
- preventive value LB (Phytophthora infestans): (0)
- preventive value GM (Botrytis cinerea): (33)
- Evaluation Score CDM [2]: 1 (Improvement in preventive value of 1 to less than 10)
- preventive value SB [1]: (60)
- preventive value VDM (Plasmopara viticola): (0)
- preventive value CPM (Sphaerotheca cucurbitae): (0)
- preventive value AS (Venturia inaequalis): (66)
- preventive value B (Magnaporthe grisea): (17)

Molecule: O=C(CO)[C@H](O)[C@H](O)[C@H](O)CO [D-psicose]
- preventive value LB (Phytophthora infestans): (47)
- preventive value GM (Botrytis cinerea): (50)
- Evaluation Score CDM [2]: 3 (Improvement in preventive value of 20 to less than 30)
- preventive value SB [1]: (40)
- preventive value VDM (Plasmopara viticola): (0)
- preventive value CPM (Sphaerotheca cucurbitae): (17)
- preventive value AS (Venturia inaequalis): (50)
- preventive value B (Magnaporthe grisea): (50)

Molecule: O=C(CO)[C@H](O)[C@@H](O)[C@H](O)CO [D-sorbose]
- preventive value LB (Phytophthora infestans): (33)
- preventive value GM (Botrytis cinerea): (33)
- Evaluation Score CDM [2]: 2 (Improvement in preventive value of 10 to less than 20)
- preventive value SB [1]: (40)
- preventive value VDM (Plasmopara viticola): (0)
- preventive value CPM (Sphaerotheca cucurbitae): (17)
- preventive value AS (Venturia inaequalis): (33)
- preventive value B (Magnaporthe grisea): (17)

Molecule: O=C(CO)[C@@H](O)[C@@H](O)[C@H](O)CO [D-tagatose, reference compound]
- control effect against barley powdery mildew ([3]; treatment concentration 0.8%): not adequate
- control effect against barley powdery mildew ([3]; treatment concentration 5%): high control effect
- Preventive Value Indices, bentgrass red blight (Pythium aphanidermatum): 1 (Preventive value of 30 to less than 60)
- effects against grape vine rust (Phakopsora ampelopsidis): not adequate
- effects against wheat speckled leaf blotch (Septoria tritici): not adequate
- effects against tomato late blight (Phytophthora infestans; [5]): not adequate
- effects against tomato gray mold (Botrytis cinerea; [5]): not adequate
- effects against soybean rust (Phakopsora pachyrhizi): not adequate
- effects against cucumber anthracnose [4]: not adequate
- control effect against cucumber downy mildew ([2]; treatment concentration 0.8%): not adequate
- control effect against cucumber downy mildew ([2]; treatment concentration 5%): high control effect
- Protective Value Index CDM, Assistant 1 [2, 6]: 2 (Preventive value of 60 to less than 80)
- preventive value, cucumber downy mildew ([2]; formula containing D-tagatose only, treatment concentration 0.4%): about 50 (40 to 60)
- effects against wheat rust (Puccinia recondita; [5]): not adequate
- preventive value, wheat rash (Puccinia recondita; [7]): about 5 (0 to 10)
- control effect against grape vine downy mildew (Plasmopara viticola; treatment concentration 0.8%): not adequate
- control effect against grape vine downy mildew (Plasmopara viticola; treatment concentration 5%): high control effect
- Protective Value Index VDM, Assistant 1 (Plasmopara viticola; [6]): 1 (Preventive value of 30 to less than 60)
- preventive value, grape vine downy mildew (Plasmopara viticola; [7]): about 40 (30 to 50)
- control effect against cucumber powdery mildew (Sphaerotheca cucurbitae; treatment concentration 0.8%): not adequate
- control effect against cucumber powdery mildew (Sphaerotheca cucurbitae; treatment concentration 5%): high control effect
- Protective Value Index CPM, Assistant 1 (Sphaerotheca cucurbitae; [6]): 2 (Preventive value of 60 to less than 80)
- preventive value, cucumber powdery mildew (Sphaerotheca cucurbitae; [7]): about 50 (40 to 60)
- effects against apple scab (Venturia inaequalis; [5]): not adequate
- effects against rice blast (Magnaporthe grisea; [5]): not adequate
- protective value, cabbage damping-off (Pythium ultimum): 29.9

Molecule: O=C[C@@H](O)[C@@H](O)[C@@H](O)[C@H](O)CO [D-talose]
- Evaluation Score CDM [2]: 2 (Improvement in preventive value of 10 to less than 20)
- preventive value SB [1]: (30)
- preventive value VDM (Plasmopara viticola): (0)
- preventive value CPM (Sphaerotheca cucurbitae): (17)
- preventive value B (Magnaporthe grisea): (50)

Molecule: O=C(CO)[C@H](O)[C@@H](O)[C@@H](O)CO [L-fructose]
- preventive value GM (Botrytis cinerea): (40)
- preventive value SB [1]: (60)
- preventive value VDM (Plasmopara viticola): (0)
- preventive value CPM (Sphaerotheca cucurbitae): (33)
- preventive value B (Magnaporthe grisea): (0)

Molecule: D-mannose
- preventive value GM (Botrytis cinerea): (16)
- Evaluation Score CDM [2]: 2 (Improvement in preventive value of 10 to less than 20)
- preventive value SB [1]: (60)
- preventive value CPM (Sphaerotheca cucurbitae): (33)
- preventive value B (Magnaporthe grisea): (17)

Molecule: Lactose
- Evaluation Score CDM [2]: 1 (Improvement in preventive value of 1 to less than 10)

Molecule: Stachyose
- Evaluation Score CDM [2]: 1 (Improvement in preventive value of 1 to less than 10)
